From US5817689A, “Indole derivatives having a 2-phenyl-ethanolamino-substituted lower alkyl group at the 2-or 3-position thereof” (priority 1994, dated 1998)
Counter-ions that a name gives are not always drawn. Like-named read-outs stand apart in the source and are kept apart here.

Legend:
Central nervous system = details: literature compound; cited from earlier work
bacteria = details: literature compound; cited from earlier work
[1] = target: T1, human β3 -adrenergic receptor (Homo sapiens, UniProt P13945); assay: Human β3-adrenergic receptor-stimulating activity (cAMP accumulation in CHO/pKREX10-36 cells); assay type: cell-based; details: for Emax: read-out: I.A. value β3 -receptor; for stimulating activity of human β3 -adrenergic receptor (in words): conclusion from Table 5; for Ratio of EC50 β2 /β3: ratio of EC50 β2-receptor to EC50 β3-receptor
T1 construct: expressed in transfected cells; host or cells: CHO-K1 (ATCC CCL 61), clone CHO/pKREX10-36
Method: Establishment of the cell line highly expressing human β3 -adrenergic receptor
Separately, another expression vector for animal cells, pSV2-neo [Southern and Berg, J. Mol. Appl. Genet. […] These DNAs were ligated with DNA Ligation Kit (Takara Shuzo Co., Ltd.) and were introduced into E. coli HB101 in a conventional manner to give the transformants. Plasmid DNAs were prepared from the transformants and digested with a restriction endonuclease PstI. A clone which produced about 3.8 kbp, 2.2 kbp, 1.4 kbp, and 0.9 kbp fragments was selected to give a plasmid named pKCN0.
The reaction mixture was used for transformation of E. coli HB101 and plasmid DNAs were prepared from the selected transformants. The plasmid DNAs were digested with restriction endonucleases DraI and HindIII, and a clone which produced about 430 bp fragment was selected to give a plasmid named pKCN1 for expression vector.
10% Dimethyl sulfoxide was added to the reaction mixture at the PCR reaction.
After the reaction mixture was digested with restriction endonucleases Sse8387I and StuI, about 1.3 kbp fragment was isolated by electrophoresis. This fragment was ligated with expression vector pKCN1 which was digested with restriction endonucleases Sse8387I and EcoRV, and the resultant was introduced into E. coli HB101 in a conventional manner. Plasmid DNA was prepared from the selected transformant and the nucleotide sequence of the about 1.3 kbp fragment obtained by digestion of the plasmid DNA with restriction endonucleases Sse8387I and XhoI was determined. […] This plasmid for expressing human β3 -adrenergic receptor was named as pKREX10.
The reaction mixture was filtered with glass filter GF/C (Whatman) presoaked with 0.3% polyethyleneimine and washed by using BIO-DOT apparatus (Bio-Rad Laboratories), and the radioactivity on the filter was counted by γ-ray counter. […] Establishment of the cell line highly expressing human β2 -adrenergic receptor
(§1) Experiment 1 Human β-adrenergic receptor-stimulating activity:
(§2) The cells were peeled off by incubation with phosphate-buffered saline containing 0.5 mM EDTA at 37° C. for 10 minutes after the medium was removed. The CHO/pKREX10-36 cells were collected by centrifugation, and suspended in Hanks' balanced salts (ICN Biomedicals) containing 1 mM L-ascorbic acid and 1 mM 3-isobutyl-1-methylxanthine at the concentration of about 2×10^6cells/ml. This suspension (100μl) and a test compound were mixed in the same balanced salt (500 μl) and incubated at 37° C. for 30 minutes, followed by boiling for 5 minutes to terminate the reaction. After centrifugation of the reaction mixture, the amount of cAMP in the supernatant was measured by using cAMP EIA System (Amersham).

[2] = target: T2, human β2 -adrenergic receptor (Homo sapiens, UniProt P07550); assay: Human β2-adrenergic receptor-stimulating activity (cAMP accumulation in CHO/pKREX21-8 cells); assay type: cell-based; details: for Emax: read-out: I.A. value β2 -receptor; for I.A. value β2 -receptor: intrinsic activity: maximal cAMP response relative to 10^-5 M (-)-isoproterenol = 100%
T2 construct: expressed in transfected cells; host or cells: CHO-K1, clone CHO/pKREX21-8
Description: cDNA was synthesized with Poly(A)^+ RNA derived from human brain (Clontech: trade number; CL6516-1) by using SuperScript Systems (Life Technologies).
After the reaction mixture was digested with restriction endonucleases Sse8387I and HindIII, about 1.4 kbp fragment was isolated by electrophoresis. This fragment was ligated with expression vector pKCN1 digested with restriction endonucleases Sse8387I and HindIII, and was introduced into E. coli HB101 in a conventional manner. Plasmid DNA was prepared from the selected transformant, and the nucleotide sequence of the about 1.4 kbp fragment obtained by digestion of this plasmid DNA with restriction endonucleases Sse8387I and HindIII was determined. […] This plasmid was named as pKREX21 for highly expressing human β2 -adrenergic receptor, and was introduced into CHO-K1 in the same manner as the method of establishment of the cell line highly expressing human β3 -adrenergic receptor.
as §1, §2
Similarly, the amount of cAMP was measured by using CHO/pKREX21-8 for highly expressing human β2 -adrenergic receptor instead of the CHO/pKREX10-36 for highly expressing human β3 -adrenergic receptor.

[3] = test system: glucose level in the blood; assay: Blood glucose reducing activity on fasted mouse; assay type: in vivo, ddY male mouse; details: 3 h, read-out: Blood glucose reducing activity (ED25)
Method: Experiment 2 Blood glucose reducing activity on fasted mouse:
A test compound suspended in 0.5% tragacanth solution was orally administered to a ddY male mouse (weight: 20-30 g) under being fasted, and the blood was collected before and at three hours after the administration of the test compound. The glucose level in the blood was determined by the method of Kunst A., et al. (Hexokinase/G6PDH method) [Bergmeyer, H. U. (eds.), […], vol. VI, 3rd edition, Verlag Chemie GmbH, Weinheim·Deerfield Beach, Florida·Basel, 163-172 (1984)]. The blood glucose reducing activity of the test compound was expressed by ED25 value which is a concentration of the test compound required to reduce the glucose level in blood before the administration of the test compound by 25%. Gliclazide was used as a reference compound which is a commercially available drug for treatment of diabetes mellitus.

[4] = test system: retroperitoneal (white) and interscapular (brown) adipose tissue; assay: Anti-obesity activity on diabetic obese mouse; assay type: in vivo, diabetic obese mouse (KK-Ay/Ta, Jcl. female); details: 3 mg/kg/day oral for three weeks, significantly different from control, p < 0.01
Method: Experiment 3 Anti-obesity activity on diabetic obese mouse:
A test compound suspended in 0.5% tragacanth solution was orally administrated to a diabetic obese mouse (KK-Ay/Ta, Jcl. female; 50-60 g, Clea Japan Inc.) at a dose of 3 mg/kg/day for three weeks, and then, the retroperitoneal adipose tissue and the interscapulal adipose tissue were taken, and the weights thereof were measured as white adipose tissue and brown adipose tissue, respectively.

[5] = 50% of cAMP accumulation, CHO/pKREX10-36, 37° C., 30 minutes, read-out: EC50 value β3 -receptor
[6] = 25% reduction of blood glucose, fasted ddY male mice, oral, three hours after administration

T2 sequence (P07550 whole entry): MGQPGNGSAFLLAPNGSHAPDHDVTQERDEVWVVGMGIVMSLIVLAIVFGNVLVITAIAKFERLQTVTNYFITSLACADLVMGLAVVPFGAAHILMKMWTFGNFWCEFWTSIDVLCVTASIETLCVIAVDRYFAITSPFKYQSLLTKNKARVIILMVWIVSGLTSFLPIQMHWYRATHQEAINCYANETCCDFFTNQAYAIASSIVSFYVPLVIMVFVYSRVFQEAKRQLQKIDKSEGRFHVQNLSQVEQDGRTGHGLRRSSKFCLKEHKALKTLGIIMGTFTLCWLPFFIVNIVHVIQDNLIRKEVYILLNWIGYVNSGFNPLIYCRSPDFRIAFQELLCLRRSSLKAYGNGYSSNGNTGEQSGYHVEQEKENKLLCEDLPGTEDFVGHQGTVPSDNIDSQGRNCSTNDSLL
T1 sequence (P13945 whole entry): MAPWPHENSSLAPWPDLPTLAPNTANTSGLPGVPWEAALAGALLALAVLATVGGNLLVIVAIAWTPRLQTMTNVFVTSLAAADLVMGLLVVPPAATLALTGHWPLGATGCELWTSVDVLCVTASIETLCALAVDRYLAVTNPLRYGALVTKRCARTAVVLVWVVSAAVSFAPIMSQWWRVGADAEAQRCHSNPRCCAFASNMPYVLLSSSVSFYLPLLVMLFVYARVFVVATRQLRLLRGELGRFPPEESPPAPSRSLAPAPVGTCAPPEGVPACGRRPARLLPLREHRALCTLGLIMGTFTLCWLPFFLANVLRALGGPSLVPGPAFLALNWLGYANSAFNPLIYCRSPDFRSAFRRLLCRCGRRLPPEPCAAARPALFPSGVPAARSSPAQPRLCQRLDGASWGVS

CC(Cc1c[nH]c2ccccc12)NCC(O)c1ccc(O)c(O)c1 (centres unmarked)
Pharmacological Activity (central nervous system) (Central nervous system): Central nervous system inhibitory

COc1ccc(C(O)CNCCc2c[nH]c3ccccc23)cc1Br (centres unmarked)
Pharmacological Activity (antibacterial) (bacteria): Antibacterial activity

COc1cccc2c(CC(C)NC[C@H](O)c3cccc(Cl)c3)c[nH]c12 (single isomer, unassigned) [Example 1-A-b, 2-[(2S or 2R)-3-(7-methoxyindol-3-yl)-2-propylamino]-(1R)-1-(3-chlorophenyl)ethanol]
EC50 [1]: 0.36 nM
Emax [1]: 89%
EC50 [2]: 3.6 nM
Emax [2]: 35%

OC(CNCCc1c[nH]c2ccc(Cl)cc12)c1ccccc1 (centres unmarked) [Compound A, reference compound]
EC50 [1, 5]: 910 nM
stimulating activity of human β3 -adrenergic receptor (in words) [1]: quite weak human β3 -adrenergic receptor-stimulating activity
Ratio of EC50 β2 /β3 [1]: 0.5
Emax [1]: 92%
EC50 ([2]; 50% of cAMP accumulation, CHO/pKREX21-8, 37° C., 30 minutes, read-out: EC50 value β2 -receptor): 410 nM
Emax [2]: 16%

OC(CNCCc1c[nH]c2ccccc12)c1ccccc1 (centres unmarked) [Compound B, reference compound]
EC50 [1, 5]: 180 nM
stimulating activity of human β3 -adrenergic receptor (in words) [1]: quite weak human β3 -adrenergic receptor-stimulating activity
Emax [1]: 100%
I.A. value β2 -receptor [2]: 8%

O=[N+]([O-])c1cccc(C(O)CNCCc2c[nH]c3ccccc23)c1 (centres unmarked) [Compound C, reference compound]
EC50 [1, 5]: 540 nM
stimulating activity of human β3 -adrenergic receptor (in words) [1]: quite weak human β3 -adrenergic receptor-stimulating activity
Emax [1]: 105%
I.A. value β2 -receptor [2]: 5%

COc1cccc2c(CC(C)NCC(O)c3cccc(Cl)c3)c[nH]c12 (centres unmarked) [Example 1, 2-[3-(7-methoxyindol-3-yl)-2-propylamino]-1-(3-chlorophenyl)ethanol]
EC50 [1, 5]: 1.7 nM
Emax [1]: 113%
ED25 ([3]; po): 0.05 mg/kg
EC50 [2]: 25 nM
Emax [2]: 33%
Weight of brown adipose tissue ([4]; control 0.460 ± 0.03): 0.289 ± 0.04 g
Weight of white adipose tissue ([4]; control 4.92 ± 0.28): 2.35 ± 0.12 g

CCOc1cccc2c(CC(C)NCC(O)c3cccc(Cl)c3)c[nH]c12 (centres unmarked) [Example 2, 2-[3-(7-ethoxyindol-3-yl)-2-propylamino]-1-(3-chlorophenyl)ethanol]
EC50 [1]: 2 nM
stimulating activity of human β3 -adrenergic receptor (in words) [1]: potent stimulating activity of human β3 -adrenergic receptor
Emax [1]: 117%
ED25 ([3]; po): 0.03 mg/kg
EC50 [2]: 55 nM
Emax [2]: 31%

CCOc1cccc2c(CC(C)NC[C@H](O)c3cccc(Cl)c3)c[nH]c12 (stereo partly drawn) [Example 2-A, 2-[3-(7-ethoxyindol-3-yl)-2-propylamino]-(1R)-1-(3-chlorophenyl)ethanol]
EC50 [1, 5]: 0.96 nM
Emax [1]: 96%
EC50 [2]: 15 nM
Emax [2]: 23%

COc1ccc2c(CC(C)NCC(O)c3cccc(Cl)c3)c[nH]c2c1 (centres unmarked) [Example 3]
EC50 [1, 5]: 22 nM
Emax [1]: 102%
ED25 ([3]; po): 3.3 mg/kg
EC50 [2]: 170 nM
Emax [2]: 22%

CC(Cc1c[nH]c2c(OCc3ccccc3)cccc12)NCC(O)c1cccc(Cl)c1 (centres unmarked) [Example 4]
EC50 [1]: 16 nM
Ratio of EC50 β2 /β3 [1]: 2.7
Emax [1]: 116%
EC50 [2]: 43 nM
Emax [2]: 36%

Cc1ccc2c(CC(C)NCC(O)c3cccc(Cl)c3)c[nH]c2c1 (centres unmarked) [Example 5]
EC50 [1, 5]: 12 nM
Emax [1]: 95%
ED25 ([3]; po): 4.5 mg/kg
EC50 [2]: 33 nM
Emax [2]: 41%

Cc1cccc2c(CC(C)NCC(O)c3cccc(Cl)c3)c[nH]c12 (centres unmarked) [Example 6]
EC50 [1]: 35 nM
Ratio of EC50 β2 /β3 [1]: 2.5
Emax [1]: 91%
ED25 ([3]; po): 4.5 mg/kg
EC50 [2]: 88 nM
Emax [2]: 19%

COC(=O)COc1ccc2c(CC(C)NCC(O)c3cccc(Cl)c3)c[nH]c2c1 (centres unmarked) [Example 7]
EC50 [1]: 25 nM
Ratio of EC50 β2 /β3 [1]: 1.3
Emax [1]: 76%
ED25 ([3]; po): 1.5 mg/kg
EC50 [2]: 33 nM
Emax [2]: 15%

COC(=O)c1ccc2c(CC(C)NCC(O)c3cccc(Cl)c3)c[nH]c2c1 (centres unmarked) [Example 8]
EC50 [1]: 31 nM
Emax [1]: 92%
ED25 ([3]; po): 1.4 mg/kg
I.A. value β2 -receptor [2]: 5%

Cc1cccc2[nH]cc(CC(C)NCC(O)c3cccc(Cl)c3)c12 (centres unmarked) [Example 10]
ED25 [3, 6]: 0.1 mg/kg

COc1ccc2c(CC(C)NCC(O)c3cccc(Cl)c3)c[nH]c2c1OC (centres unmarked) [Example 12]
EC50 [1]: 4 nM
Ratio of EC50 β2 /β3 [1]: 7.8
Emax [1]: 98%
EC50 [2]: 31 nM
Emax [2]: 13%

CC(Cc1c[nH]c2cc(OCC(=O)O)ccc12)NCC(O)c1cccc(Cl)c1 (centres unmarked) [Example 13, 2-[3-(6-carboxymethoxyindol-3-yl)-2-propylamino]-1-(3-chlorophenyl)ethanolsodium salt]
EC50 [1]: 31 nM
Emax [1]: 101%
I.A. value β2 -receptor [2]: 6%

COC(=O)COc1cccc2c(CC(C)NC[C@H](O)c3cccc(Cl)c3)c[nH]c12 (stereo partly drawn) [Example 14, 2-[3-(7-methoxycarbonylmethoxyindol-3-yl)-2-propylamino]-(1R)-1-(3-chlorophenyl)ethanol]
EC50 [1]: 0.43 nM
stimulating activity of human β3 -adrenergic receptor (in words) [1]: potent stimulating activity of human β3 -adrenergic receptor
Ratio of EC50 β2 /β3 [1]: 14.0
Emax [1]: 95%
adrenoceptor selectivity for human β3 -adrenergic receptor (in words) ([1]; β3 versus β2, conclusion from Table 5): excellent adrenoceptor selectivity for human β3 -adrenergic receptor
EC50 [2]: 6 nM
Emax [2]: 29%

Cc1ccc(S(=O)(=O)NC(=O)NN2CC3CCCC3C2)cc1 (centres unmarked) [Gliclazide, reference compound]
ED25 [3, 6]: 0.87 mg/kg

CC(C)NC[C@H](O)c1ccc(O)c(O)c1 [IP, (-)Isoproterenol, reference compound]
I.A. value β3 -receptor ([1]; intrinsic activity: maximal cAMP response relative to 10^-5 M (-)-isoproterenol = 100%): 100%
